Results as given in patent publication US4374988A, “4-Heteroarylimidazo-[1,5-A]pyrimidines” (American Cyanamid Company, priority 1981, dated 1983).

What was measured:
[1] = tested on: rats; experiment: thirsty rat conflict test (non-conditioned passive avoidance); assay type: in vivo, rat (Wistar strain)
Source text: Another test which has been employed to assess anti-anxiety effects is a non-conditioned passive avoidance procedure described by J. R. Vogel, B. Beer and D. E. Clody, "A Simple and Reliable Conflict Procedure for Testing Anti-Anxiety Agents", Psychopharmacologia, Vol. 21, pages 1-7 (1971). A conflict situation is induced in rats by a modification of this method. The test is referred to herein as the "thirsty rat conflict" test.
Groups of 8 naive, Wistar strain rats, weighing 200-240 g. each, were deprived of water for 48 hours. The test compounds were administered in single or graded, oral or intraperitoneal doses, suspended in distilled water and one drop of polysorbate 80. The control animals received the vehicle alone. After 30 or 60 minutes, each rat was placed in an individual clear plexiglass chamber. Tap water was available ad libitum from a nipple located in a black plexiglass box adjacent to the main chamber. A circuit carrying a 0.7 milliampere AC shocking current was established between the stainless steel grid floor of the chamber and the nipple. After 20 licks of non-shocked drinking, a fixed ratio of a 2-second "shock-on" and 19 licks "shock-off" cycle began and continued for a total of 3 minutes. The number of shocks taken by each rat during a 3-minute interval was recorded and compared to a control group.

[2] = tested on: rats; experiment: protection from pentylenetetrazole-induced clonic seizures in rats; assay type: in vivo, rat
Protocol: The anti-anxiety properties of the novel compounds of the invention have been established in a test which indicates anxiolytic activity by the measure of protection from convulsions resulting from the administration of pentylenetetrazole (sold as METROZOL, Reg. T.M.). Single or graded dosage levels of the test compounds were administered orally or intraperitoneally (in a 2% starch vehicle, containing 5% v/v polyethylene glycol and one to two drops of polysorbate 80) to groups of at least 4 rats. Thirty or 60 minutes after administration, the rats were treated intravenously with pentylenetetrazole at a dosage of 23 mg/kg. of body weight. This dose is estimated to cause clonic seizures in 99% of unprotected rats. A test compound is considered active if it protects 50% or more of the rats from clonic seizures. It has been reported (R. T. Hill and D. H. Tedeschi, "Animal Testing and Screening Procedures in Evaluating Psychotropic Drugs" in "An Introduction to Psychopharmacology", Eds. R. R. Rech and K. E. Moore, Raven Press, New York, pages 237-288 (1971)) that there is a high degree of correlation between antagonism of pentylenetetrazole seizures in rats and anti-anxiety effects in higher mammals.

[3] = tested on: brain-specific receptors; experiment: inhibition of 3H-benzodiazepine (3H-flunitrazepam) binding to brain-specific receptors; parameters: species or system rat (Wistar strain); conditions: 1 μM test compound (activity criterion), rat cortex P2 fraction, 0° C., 30 minutes

Structure (SMILES)	activity in the thirsty rat conflict test ([1]; intraperitoneal, 25 mg/kg)	resistance to convulsions induced by pentylenetetrazole ([2]; intraperitoneal, 50 mg./kg., pentylenetetrazole 23 mg/kg i.v.)	inhibition of 3H-benzodiazepine binding [3] [%]	anxiolytic activity (thirsty rat conflict test) ([1]; general statement, oral or intraperitoneal, active if shocks significantly higher than control (Mann-Whitney U test))	activity in the thirsty rat conflict test ([1]; oral, 25 mg./kg.)	ED50 ([2]; Rattus norvegicus, oral, dosage effective in 50% of the rats, pentylenetetrazole 23 mg/kg i.v., read-out: ED50, resistance to convulsions induced by pentylenetetrazole) [mg/kg]	anxiolytic activity (protection from pentylenetetrazole convulsions) ([2]; general statement, oral or intraperitoneal, active if 50% or more of rats protected)	resistance to convulsions induced by pentylenetetrazole (in words) ([2]; oral)
N#Cc1ncn2c(-c3cccs3)ccnc12 [Example 1, 4-(2-Thienyl)imidazo[1,5-a]pyrimidine-8-carbonitrile]	active	inactive	39	–	–	–	–	–
N#Cc1ncn2c(-c3ccsc3)ccnc12 [Example 2, 4-(3-Thienyl)imidazo[1,5-a]pyrimidine-8-carbonitrile]	–	–	20	–	–	–	–	–
N#Cc1ncn2c(-c3cccnc3)ccnc12 [Example 5, 4-(3-Pyridyl)imidazo[1,5-a]pyrimidine-8-carbonitrile]	–	–	19	shown to possess anxiolytic activity	active	6.8	shown to possess anxiolytic activity	effective
CCOC(=O)c1ncn2c(-c3cccnc3)ccnc12 [Example 15, Ethyl 4-(3-pyridyl)imidazo[1,5-a]pyrimidine-8-carboxylate]	–	–	49	–	inactive	–	–	–
